The subject of one test is GABA receptor. The conditions noted are these: Tallman et al., 1978; cited from earlier work.
A further test has as its target GABAa receptor. In words: GABAa receptor (benzodiazepine site) binding, displacement of 3H-RO15-1788 [3H-Flumazenil]. The conditions noted are these: rat cortical tissue; 0.5 nM 3H-RO15-1788; 30 min at 4° C. The protocol:
Assays are carried out as described in Thomas and Tallman (J. Bio. Chem. 156: 9838-9842, J. Neurosci. 3:433-440, 1983). Rat cortical tissue is dissected and homogenized in 25 volumes (w/v) of 0.05M Tris HCl buffer (pH 7.4 at 4° C.). The tissue homogenate is centrifuged in the cold (4° ) at 20,000×g for 20'. The supernatant is decanted and the pellet is rehomogenized in the same volume of buffer and again centrifuged at 20,000×g. The supernatant is decanted and the pellet is frozen at -20° C. overnight. The pellet is then thawed and rehomogenized in 25 volume (original wt/vol) of buffer and the procedure is carried out twice. The pellet is finally resuspended in 50 volumes (w/vol of 0.05M Tris HCl buffer (pH 7.4 at […]).
Incubations contain […] of tissue homogenate, […] of radioligand 0.5 nM (^3 H-RO15-1788 [^3 H-Flumazenil] specific activity 80 Ci/mmol), drug or blocker and buffer to a total volume of […]. Incubations are carried for 30 min at 4° C. then are rapidly filtered through GFB filters to separate free and bound ligand. Filters are washed twice with fresh 0.05M Tris HCl buffer (pH 7.4 at 4° C. ) and counted in a liquid scintillation counter. […] diazepam is added to some tubes to determine nonspecific binding. Data are collected in triplicate determinations, averaged and % inhibition of total specific binding is calculated. Total Specific Binding=Total-Nonspecific. In some cases, the amounts of unlabeled drugs is varied and total displacement curves of binding are carried out. Data are converted to a form for the calculation of IC50 and Hill Coefficient (nH).
For orientation: Displacement assays read how much labelled ligand stays bound in the presence of the test substance.

The structures appear in SMILES notation.

Regarding `CN1CCc2cc3c(cc2C1C1OC(=O)c2c1ccc1c2OCO1)OCO3` (single isomer, unassigned; (+)) [(+) bicuculline], in the test on GABA receptor, the “block of enhancement of benzodiazepine binding by GABA agonists” value is “blocked”.

`O=c1c(-c2ccccc2)nc2c[nH]c3ccccc3n1-2` [Compound 2, 2-Phenyl-imidazo-[1,2-a]-quinoxalin-1(5H)-one] returned an IC50 on GABAa receptor of 0.033 µM.

As for `CN1CCc2cc3c(cc2C1C1OC(=O)c2c1ccc1c2OCO1)OCO3` (single isomer, unassigned; (-)) [(-) bicuculline], the “block of enhancement of benzodiazepine binding by GABA agonists” value in the test with GABA receptor is listed as “much less active”.

As to `COc1cccc(-c2nc3c[nH]c4ccccc4n-3c2=O)c1` [Compound 3, 2-(3-Methoxyphenyl)-imidazo-[1,2-a]-quinoxalin-1(5H)-one], the IC50 at GABAa receptor was found to be 0.07 µM.

As to `COc1ccc(-c2nc3c[nH]c4ccccc4n-3c2=O)cc1` [Compound 1, 2-(4-methoxyphenyl)-imidazo-[1,2-a]-quinoxalin-1(5H)-one], on GABAa receptor, the IC50 was 0.033 µM.

Broadly, the IC50 is the concentration at which inhibition is half-maximal.
